Measurements from patent publication US11427544B2, “Histone deacetylase 6 inhibitors and use thereof” (TAIPEI MEDICAL UNIVERSITY, priority 2016, dated 2022).

Columns and labels:
[1] = test system: APP in pCAX APP 695 plasmid-transfected Neuro 2a cells; assay: Amyloid precursor protein (APP) levels, Western blot; format: cell-based; details: pCAX APP 695 transfected neuro 2a cells; 0.1-10 μM, 24 hours
Protocol: A study was conducted to evaluate the effect of compounds of Formula (I) in amyloid precursor protein (APP) levels and Aβ42 production.
Neuro 2a cells (1×10^6) in 6-well plates were transfected with pCAX APP 695 plasmid for 24 hours, then incubated for another 24 hours with Compound 12, Compound 28, or tubasatin A (0.1-10 μM). Cells were then harvested and cell lysates were prepared for Western blot analysis of the APP proteins.

[2] = test system: T98 Glioblastoma cell line; assay: Antiproliferative activity, T98; format: cell-based, human; details: Homo sapiens, T98, T98
Protocol: A study was conducted to evaluate the inhibitory activity of compounds of Formula (I) in inhibiting HDAC6, antiproliferative activity of test compounds in suppressing cancer cell growth, and selectivity of inhibiting HDAC6 over other HDAC isoforms.
The study was performed according to the protocol reported in Hsieh et al., Cell Death and Disease, 2014, April; 5:e1166.
Shown in Table 2 below are antiproliferative activities (measured by their half maximal concentration for inhibiting cell growth, i.e., GI50) of the test compounds against various cancer cell lines.

[3] = test system: BJAB Burkitt lymphoma-derived B-cell; assay: Tumor growth inhibition, BJAB xenograft; format: in vivo, athymic nude mice; details: qd, intraperitoneal
Protocol: (§1) An in vivo study was conducted to evaluate the efficacy of compounds of Formula (I) in suppressing tumor growth in multiple human cancer types.
(§2) Eight-week-old athymic nude mice were group-housed under conditions of constant photoperiod (12 h light/12 h dark at 21-23° C. and 60-85% humidity) with ad libitum access to sterilized food and water. All animal experiments followed ethical standards, and protocols were reviewed and approved by the Animal Use and Management Committee of National Taiwan University. Each mouse was inoculated subcutaneously with 1×10^6˜1×10^7 human cancer cells in a total volume of 0.1 mL serum-free medium containing 50% Matrigel (BD Biosciences). As tumors became established (˜100 mm^3), mice were randomized to various groups to be treated with pre-determined materials (n=6-8/group): (i) control group: 0.5% DMSO/0.5% Cremophor/90% D5W and (ii) treatment groups: Compounds 12 and 28 at pre-determined doses daily. Mice received treatment by intraperitoneal injection for the duration of the study. Tumors were measured weekly using calipers. Tumor size, in mm^3, was calculated according to the formula: Tumor volume=(w^2×l)/2, where w and 1 respectively represent the width and length (both in mm) of the tumor.

[4] = test system: HL-60 Acute promyelocytic leukemia; assay: Tumor growth inhibition, HL-60 xenograft; format: in vivo, athymic nude mice; details: qd, intraperitoneal
Protocol: as §1, §2

[5] = test system: HCT116 Colorectal; assay: Tumor growth inhibition, HCT116 xenograft; format: in vivo, athymic nude mice; details: qd, intraperitoneal
Protocol: as §1, §2

[6] = target: T1, HDAC6 (Homo sapiens, UniProt Q9UBN7); assay: Fluorogenic HDAC assay, HDAC6; format: biochemical
T1 construct: purchased BPS Bioscience Corp
T1 sequence (Q9UBN7 1-1215): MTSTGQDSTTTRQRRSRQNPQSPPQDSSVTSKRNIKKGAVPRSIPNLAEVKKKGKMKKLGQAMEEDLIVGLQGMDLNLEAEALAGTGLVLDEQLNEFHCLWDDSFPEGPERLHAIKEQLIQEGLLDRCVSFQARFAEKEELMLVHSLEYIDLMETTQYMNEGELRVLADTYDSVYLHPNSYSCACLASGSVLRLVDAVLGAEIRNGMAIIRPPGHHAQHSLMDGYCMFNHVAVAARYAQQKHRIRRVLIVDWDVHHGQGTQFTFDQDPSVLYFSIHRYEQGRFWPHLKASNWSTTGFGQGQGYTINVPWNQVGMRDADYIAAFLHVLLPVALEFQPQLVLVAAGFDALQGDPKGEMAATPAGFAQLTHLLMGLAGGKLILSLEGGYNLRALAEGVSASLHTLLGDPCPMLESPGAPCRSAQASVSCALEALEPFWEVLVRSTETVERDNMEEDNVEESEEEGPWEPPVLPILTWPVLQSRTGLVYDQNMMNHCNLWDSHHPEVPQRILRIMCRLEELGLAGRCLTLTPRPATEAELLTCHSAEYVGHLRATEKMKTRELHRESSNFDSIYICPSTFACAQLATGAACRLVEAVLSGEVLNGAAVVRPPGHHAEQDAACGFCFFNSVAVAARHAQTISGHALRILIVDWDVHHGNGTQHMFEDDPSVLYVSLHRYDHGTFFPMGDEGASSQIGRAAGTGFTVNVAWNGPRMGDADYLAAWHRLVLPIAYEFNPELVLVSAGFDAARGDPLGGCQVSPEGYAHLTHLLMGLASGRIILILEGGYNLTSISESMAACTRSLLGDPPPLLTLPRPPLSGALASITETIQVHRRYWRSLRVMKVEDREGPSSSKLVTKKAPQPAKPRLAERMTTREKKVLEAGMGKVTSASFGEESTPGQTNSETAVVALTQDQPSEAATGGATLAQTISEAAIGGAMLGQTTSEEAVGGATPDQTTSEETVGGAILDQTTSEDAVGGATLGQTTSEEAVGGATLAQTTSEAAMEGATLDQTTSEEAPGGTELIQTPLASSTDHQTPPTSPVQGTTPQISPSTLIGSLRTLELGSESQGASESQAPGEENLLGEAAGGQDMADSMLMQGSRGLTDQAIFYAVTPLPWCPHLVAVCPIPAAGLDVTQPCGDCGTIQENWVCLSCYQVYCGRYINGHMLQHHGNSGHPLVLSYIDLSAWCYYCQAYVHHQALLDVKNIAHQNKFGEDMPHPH
Text: Of note, there are eighteen human HDACs. Eleven of them, designated as HDAC1-11, are zinc-dependent. Seven of them, designated as Sirt1-7, are NAD+-dependent.
Fluorogenic HDAC assay kits were used to assess the ability of HDAC inhibitors to inhibit deacetylation of lysine residues on a substrate by recombinant proteins HDAC1, 3, 4, 5, 6, 7, 8, 9 and Sirt1 according to the manufacturer's instructions (BPS Bioscience Corp., San Diego, Calif., USA).

[7] = test system: scopolamine-induced memory deficit; assay: Water maze test, scopolamine-treated rats; format: in vivo; details: gavage twice daily for seven days; scopolamine 1.5 mg/kg i.p.
Protocol: An in vivo study was conducted to evaluate the efficacy of compounds of Formula (I) in improving memory deficits associated with Alzheimer's disease.
Compound 12, Compound 28, suberanilohydroxamic acid (50 mg/kg) or vehicle was given to rats by gavage twice daily for seven days prior to behavioral experiments. On the day conducting a behavior assessment, rats in all groups except the control group were administered scopolamine (1.5 mg/kg) by intraperitoneal injection for 30 minutes before the assessment, then a water maze test or an elevated plus maze test was performed.

O=C(NO)c1ccc(CNc2cccc3cccnc23)cc1 [Compound 28, N-hydroxy-4-((quinolin-8-ylamino)methyl)benzamide]
APP expression [1]: markedly reduced the APP expression
GI50 [2]: 9.89 ± 0.92 µM
% TGI ([3]; 25 mg/kg): 40.8%
% TGI ([3]; 50 mg/kg): 74.0%
% TGI ([4]; 25 mg/kg): 47.4%
% TGI ([4]; 50 mg/kg): 61.1%
% TGI ([5]; 50 mg/kg): 9.1%
% TGI ([5]; 100 mg/kg): 44.4%
IC50 [6]: 0.00441 µM
time spent in the correct quadrant (water maze) [7]: markedly reverse this effect
